#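 Interpolation was linear, between the two tested concentrations surrounding the appropriate level; five concentrations were tested over 48 hours in 96-well plates. Abbreviation: GI50, concentration required for 50% inhibition of growth.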 Activity calls are given as the source filed them. Rule as the data show it: active = GI50 up to about 1.1 µM and inactive = higher.
# Columns and labels:
# Assay in all cases: NCI-60 cell line screen, 48 h
# [1] = system: HCT-116
# [2] = system: RXF 393
# [3] = system: CAKI-1
# [4] = system: HOP-62
# [5] = system: NCI-H23
# [6] = system: K562
# [7] = system: ACHN
# [8] = system: RPMI-8226
# [9] = system: COLO 205
# [10] = system: IGROV-1
# [11] = system: SK-MEL-5
# [12] = system: T47D
# [13] = system: CCRF-CEM
# [14] = system: NCI/ADR-RES
# [15] = system: NCI-H226
# [16] = system: SF-539
# [17] = system: EKVX
# [18] = system: SF-268
# [19] = system: MDA-MB-231
# [20] = system: MCF7
# [21] = system: UACC-257
# [22] = system: DU-145
# [23] = system: UO-31
# [24] = system: KM12
# [25] = system: HCT-15
# [26] = system: OVCAR-8
# [27] = system: MOLT-4
# [28] = system: SR
# [29] = system: TK-10
# [30] = system: OVCAR-5
# [31] = system: NCI-H460
# [32] = system: HL-60
# [33] = system: OVCAR-3
# [34] = system: SF-295
# [35] = system: A498
# [36] = system: 786-0
# [37] = system: MDA-N
# [38] = system: UACC-62
# [39] = system: Hs-578T
# [40] = system: A549
# [41] = system: M14
# [42] = system: HT-29
# [43] = system: SNB-19
# [44] = system: BT-549
# [45] = system: SNB-75
# [46] = system: SK-MEL-2
# [47] = system: SN12C
# [48] = system: PC-3
# [49] = system: SK-OV-3
# [50] = system: SW-620
# [51] = system: OVCAR-4
# [52] = system: SK-MEL-28
# [53] = system: HCC 2998
# [54] = system: NCI-H522
# [55] = system: MDA-MB-435
# [56] = system: U-251
# [57] = system: HOP-92
# [58] = system: LOX IMVI
# [59] = system: Malme-3M
structure (smiles),measurement,setting,value
CCOC(=O)c1c(NC(=O)c2cccs2)sc2c1CCC2,GI50,[1],> 100 µM (inactive)
same,GI50,[2],> 100 µM (inactive)
same,GI50,[3],> 100 µM (inactive)
same,GI50,[4],> 100 µM (inactive)
same,GI50,[5],> 100 µM (inactive)
same,GI50,[6],> 100 µM (inactive)
same,GI50,[7],> 100 µM (inactive)
same,GI50,[8],> 100 µM (inactive)
same,GI50,[9],> 100 µM (inactive)
same,GI50,[10],> 100 µM (inactive)
same,GI50,[11],> 100 µM (inactive)
same,GI50,[12],> 100 µM (inactive)
same,GI50,[13],> 100 µM (inactive)
same,GI50,[14],> 100 µM (inactive)
same,GI50,[15],> 100 µM (inactive)
same,GI50,[16],> 100 µM (inactive)
same,GI50,[17],> 100 µM (inactive)
same,GI50,[18],> 100 µM (inactive)
same,GI50,[19],> 100 µM (inactive)
same,GI50,[20],> 100 µM (inactive)
same,GI50,[21],> 100 µM (inactive)
same,GI50,[22],> 100 µM (inactive)
same,GI50,[23],> 100 µM (inactive)
same,GI50,[24],> 100 µM (inactive)
same,GI50,[25],> 100 µM
same,GI50,[26],> 100 µM (inactive)
same,GI50,[27],> 100 µM (inactive)
same,GI50,[28],73.3 µM (inactive)
same,GI50,[29],> 100 µM (inactive)
same,GI50,[30],> 100 µM (inactive)
same,GI50,[31],> 100 µM (inactive)
same,GI50,[32],> 100 µM (inactive)
same,GI50,[33],> 100 µM (inactive)
same,GI50,[34],> 100 µM (inactive)
same,GI50,[35],> 100 µM (inactive)
same,GI50,[36],> 100 µM (inactive)
same,GI50,[37],> 100 µM (inactive)
same,GI50,[38],> 100 µM (inactive)
same,GI50,[39],> 100 µM (inactive)
same,GI50,[40],> 100 µM (inactive)
same,GI50,[41],> 100 µM (inactive)
same,GI50,[42],> 100 µM (inactive)
same,GI50,[43],> 100 µM (inactive)
same,GI50,[44],> 100 µM (inactive)
same,GI50,[45],1.22 µM (inactive)
same,GI50,[46],> 100 µM (inactive)
same,GI50,[47],> 100 µM (inactive)
same,GI50,[48],> 100 µM (inactive)
N#Cc1ccc(/C=C2\Cc3ccccc3C2=O)cc1,GI50,[49],> 100 µM (inactive)
same,GI50,[1],> 100 µM (inactive)
same,GI50,[50],> 100 µM (inactive)
same,GI50,[2],> 100 µM (inactive)
same,GI50,[51],> 100 µM (inactive)
same,GI50,[3],26.2 µM (inactive)
same,GI50,[4],> 100 µM (inactive)
same,GI50,[5],> 100 µM (inactive)
same,GI50,[6],> 100 µM (inactive)
same,GI50,[7],> 100 µM (inactive)
same,GI50,[52],> 100 µM (inactive)
same,GI50,[8],> 100 µM (inactive)
same,GI50,[9],> 100 µM (inactive)
same,GI50,[53],> 100 µM (inactive)
same,GI50,[11],> 100 µM (inactive)
same,GI50,[12],36.3 µM (inactive)
same,GI50,[13],> 100 µM (inactive)
same,GI50,[15],56.9 µM (inactive)
same,GI50,[16],> 100 µM (inactive)
same,GI50,[17],46.8 µM (inactive)
same,GI50,[18],> 100 µM (inactive)
same,GI50,[19],> 100 µM (inactive)
same,GI50,[20],> 100 µM (inactive)
same,GI50,[21],75.2 µM (inactive)
same,GI50,[22],> 100 µM (inactive)
same,GI50,[23],43.4 µM (inactive)
same,GI50,[24],> 100 µM (inactive)
same,GI50,[25],> 100 µM
same,GI50,[26],> 100 µM (inactive)
same,GI50,[54],14.3 µM (inactive)
same,GI50,[27],> 100 µM (inactive)
same,GI50,[28],> 100 µM (inactive)
same,GI50,[29],> 100 µM (inactive)
same,GI50,[31],> 100 µM (inactive)
same,GI50,[32],67.6 µM (inactive)
same,GI50,[55],> 100 µM (inactive)
same,GI50,[33],> 100 µM (inactive)
same,GI50,[34],> 100 µM (inactive)
same,GI50,[36],> 100 µM (inactive)
same,GI50,[37],> 100 µM (inactive)
same,GI50,[38],> 100 µM (inactive)
same,GI50,[39],51.2 µM (inactive)
same,GI50,[40],> 100 µM (inactive)
same,GI50,[41],> 100 µM (inactive)
same,GI50,[42],> 100 µM (inactive)
same,GI50,[43],> 100 µM (inactive)
same,GI50,[44],> 100 µM (inactive)
same,GI50,[45],> 100 µM (inactive)
same,GI50,[47],> 100 µM (inactive)
same,GI50,[48],> 100 µM (inactive)
COC(=O)C1SC(SC)=NC12c1ccccc1Nc1ccccc12 (stereo unspecified),GI50,[49],45.8 µM (inactive)
same,GI50,[1],31.7 µM (inactive)
same,GI50,[50],36.6 µM (inactive)
same,GI50,[2],67.3 µM (inactive)
same,GI50,[51],32.7 µM (inactive)
same,GI50,[3],37.3 µM (inactive)
same,GI50,[4],41.8 µM (inactive)
same,GI50,[5],19.8 µM (inactive)
same,GI50,[6],23.9 µM (inactive)
same,GI50,[7],36.3 µM (inactive)
same,GI50,[56],25.2 µM (inactive)
same,GI50,[52],21.1 µM (inactive)
same,GI50,[8],21.2 µM (inactive)
same,GI50,[9],20.5 µM (inactive)
same,GI50,[10],30.3 µM (inactive)
same,GI50,[53],24.5 µM (inactive)
same,GI50,[11],17.2 µM (inactive)
same,GI50,[57],20.8 µM (inactive)
same,GI50,[12],32.2 µM (inactive)
same,GI50,[13],31.8 µM (inactive)
same,GI50,[58],18 µM (inactive)
same,GI50,[14],39.9 µM (inactive)
same,GI50,[15],53.6 µM (inactive)
same,GI50,[16],17.5 µM (inactive)
same,GI50,[17],30.1 µM (inactive)
same,GI50,[18],37.4 µM (inactive)
same,GI50,[20],27.7 µM (inactive)
same,GI50,[21],25.7 µM (inactive)
same,GI50,[22],36.4 µM (inactive)
same,GI50,[23],69.2 µM (inactive)
same,GI50,[24],41.7 µM (inactive)
same,GI50,[25],29.4 µM
same,GI50,[26],33.3 µM (inactive)
same,GI50,[54],19.5 µM (inactive)
same,GI50,[27],22.1 µM (inactive)
same,GI50,[28],17.5 µM (inactive)
same,GI50,[29],50 µM (inactive)
same,GI50,[30],54.8 µM (inactive)
same,GI50,[31],22.1 µM (inactive)
same,GI50,[32],29.5 µM (inactive)
same,GI50,[55],27 µM (inactive)
same,GI50,[33],18.2 µM (inactive)
same,GI50,[34],32.7 µM (inactive)
same,GI50,[35],41.8 µM (inactive)
same,GI50,[36],35.2 µM (inactive)
same,GI50,[37],26.8 µM (inactive)
same,GI50,[38],16.6 µM (inactive)
same,GI50,[39],31.7 µM (inactive)
same,GI50,[40],28.3 µM (inactive)
same,GI50,[41],18.5 µM (inactive)
same,GI50,[42],30.8 µM (inactive)
same,GI50,[43],40.5 µM (inactive)
same,GI50,[44],24.7 µM (inactive)
same,GI50,[45],51.1 µM (inactive)
same,GI50,[46],21.5 µM (inactive)
same,GI50,[47],30.7 µM (inactive)
same,GI50,[48],28.3 µM (inactive)
same,GI50,[59],22 µM (inactive)
